Experimental data as given in US5679638A, “Method for treating a tumor with a chemotherapeutic agent” (Biopure Corporation, priority 1993, dated 1997).

How the values were obtained:
Lewis lung carcinoma = Lewis lung carcinoma growth delay; assay type: in vivo, mouse (male C57BL); conditions: for Lewis lung carcinoma growth delay, Mean Days: NSAID days 4-18; for Increase of growth delay by addition of UPHS: drug + UPHS vs drug
Protocol: (§1) The Lewis lung tumor was carried in male C57BL mice (Taconic Laboratories, Germantown, N.Y.). For the experiments, 2×10^6 tumor cells prepared from a brei of several stock tumors were implanted subctaneously into the legs of male mice aged 8-10 weeks. […] Animals bearing Lewis lung tumors were treated daily with intraperitoneal Mino (10 mg/kg), Diflun (15 mg/kg) or Sulin (15 mg/kg) on days 4-18 following tumor implantation. When the tumors had reached a volume of approximately 100 mm^3 (day 7 after tumor cell implantation), cytotoxic therapy was initiated.
(§2) Therapy consisted of treatment with an antitumor alkylating agent, an antitumor antimetabolite, a non-steroidal anti-inflammatory drug (NSAID) and/or UPHS. […] CTX therapy consisted of three successive 150 mg/kg CTX doses administered by intraperitoneal injections on days 7, 9 and 11. BCNU therapy consisted of three successive 15 mg/Kg BCNU doses administered by intraperitoneal injections on days 7, 9 and 11. Therapy with the antimetabolite 5-fluorouracil(5-FU) consisted of 4 successive 40 mg/kg 5-FU doses administered by intraperitoneal injections daily on days 7 to 11. The 5-FU was purchased from Sigma Chemical Co., St. Louis, Mo. Fourteen doses of 10 mg/kg of NSAID were administered daily by intraperitoneal injections on days 4 to 18. UPHS was injected into the tail vein in 8 ml/kg doses daily on days 7-11.
The progress of each tumor was measured thrice weekly until it had reached a volume of 500 mm^3. Tumor growth delay was calculated as the number of days required for each treated tumor to reach a volume of 500 mm^3 as compared with untreated control tumors. Each treatment group comprised six animals and the experiment was repeated three times.
On the twentieth day after the subcutaneous tumor implantation, the delay in Lewis Lung Carcinoma tumor growth was evaluated. Tumor growth delay data is presented as the mean value ±SE calculated for the treatment group as compared with the control group.

[1] = tested on: intracranial 9L gliosarcoma; assay: Life span of rats with intracranial 9L gliosarcoma; assay type: in vivo, rat (male Fischer 344); conditions: for % Increased from Control (life span) / Survival Days: Table II; for % Increased from Control (life span) / Increase in life span with UPHS prior to the drug therapy: vs untreated control; for Survival Days: control 26 ± 2.2 days, CDDP 8 mg/kg day 7, BCNU 3 x 15, CTX or IFOS 3 x 100 mg/kg days 7, 9, 11, UPHS 8 ml/kg; for Significance of increase in life span, drug alone: 25% or more is therapeutically significant; for Effectiveness against intracranial 9L tumors: relative statement among BCNU, CTX, CDDP, IFOS
Protocol: The 9L gliosarcoma (9L) cells were obtained as a gift of 9L/SF gliosarcoma cells from Dr. Dennis Dean, University of California, San Francisco. These cells were maintained in culture in .varies.-MEM (Grand Island Biological Co., Grand Island, N.Y.) and supplemented with 10% fetal bovine serum (Sterile Systems, Inc., Logan, Utah) and with antibiotics. The 9L cells (4×10^4) in 10 μL of media without serum were implanted intracranially in male Fischer 344 rats (Taconic Farms, Germantown, N.Y.) weighing 200-250 gm on day 0. Each rat was anesthetized with sodium pentobarbital. A midline scalp incision was made and a hole was bored through the skull with 23 gauge needle at a point 2 mm lateral to the midline. The cell suspension was injected into the right frontal lobe at a depth of 3 mm from the dural surface. The needle was removed and the hole filled with dental cement. The scalp was sealed with a surgical clip. Two days later 9L cells (2×10^6) were implanted subcutaneously into the flank of each animal. When the tumors were approximately 100 mm^3 in volume, 7 days after tumor cell implantation, 8 ml/kg of UPHS was injected via the tail vein. After injecting the UPHS, administration of chemotherapeutic agents was initiated. […] BCNU therapy consisted of three 15 mg/kg BCNU doses administered by intraperitoneal injection days 7, 9 and 11. CTX and ifosfamide (IFOS) therapy consisted of three 100 mg/kg CTX or IFOS doses administered by intraperitoneal injection on days 7, 9 and 11. For the BCNU, CTX and IFOS therapies, UPHS was intravenously administered prior to each chemotherapeutic agent injection on days 7, 9 and 11. The IFOS was purchased from the Dana-Farber Cancer Institute. Survival of animals was monitored daily. Animals that were moribund or unable to reach food or water were killed by CO2 inhalation.
The effect of the treatments on the growth of the intracranial tumor was determined by the increase in life span of treated groups compared with the untreated controls. A percentage increase in life span of 25% or more is therapeutically significant.

[2] = tested on: Lewis lung carcinoma lung metastases; assay: Lung metastases of Lewis lung carcinoma; assay type: in vivo, mouse (male C57BL); parameters: Lung Metastases: unit not given here
Protocol: as §1
as §2, with “7-11. […]” for “7-11.”

FSaIIC fibrosarcoma = conditions: cited from earlier work
[3] = WITH UPHS (8 ml/kg daily days 7-11), CDDP or PAM 10 mg/kg, CTX 3 x 150, BCNU 3 x 15, 5-FU 40 mg/kg
[4] = WITHOUT UPHS, CDDP or PAM 10 mg/kg day 7, CTX 3 x 150, BCNU 3 x 15 mg/kg days 7, 9, 11, 5-FU 40 mg/kg
[5] = intracranial (life span) and subcutaneous (growth delay) 9L tumors

SMILES: O=NN(CCCl)C(=O)NCCCl [BCNU, N,N-bis(2-chloroethyl)-N-nitrosourea]
- Lewis lung carcinoma growth delay, Mean Days (Lewis lung carcinoma; [3]): 5.3 ± 0.5 days
- Lewis lung carcinoma growth delay, Mean Days (Lewis lung carcinoma; [4]): 3.6 ± 0.4 days
- Increase of growth delay by addition of UPHS (Lewis lung carcinoma): also enhanced, to a lesser degree
- % Increased from Control (life span) [1]: 22%
- Survival Days [1]: 31.6 days
- Increase in life span with UPHS prior to the drug therapy [1]: 38%
- Significance of increase in life span, drug alone [1]: did not reach significance
- Increase in therapeutic response upon addition of UPHS ([1]; rat, in vivo, sc): improved to a greater degree, as determined by increase in life span, against the intracranial tumor than against the subcutaneous tumor
- Effectiveness against intracranial 9L tumors [1]: moderately effective against the intracranial 9L tumors
- Lung Metastases ([2]; WITH UPHS): 9
- Lung Metastases (% Large) ([2]; WITH UPHS): 61%
- Lung Metastases ([2]; WITHOUT UPHS): 15.5
- Lung Metastases (% Large) ([2]; WITHOUT UPHS): 53%

SMILES: N.N.[Cl][Pt][Cl] [CDDP, cis-diaminodichloroplatinum(II)]
- Lewis lung carcinoma growth delay, Mean Days (Lewis lung carcinoma; [3]): 5.7 ± 0.4 days
- Lewis lung carcinoma growth delay, Mean Days (Lewis lung carcinoma; [4]): 4.5 ± 0.3 days
- Increase of growth delay by addition of UPHS (Lewis lung carcinoma): also enhanced, to a lesser degree
- % Increased from Control (life span) [1]: 29%
- Survival Days [1]: 33.6 days
- Increase in life span with UPHS prior to the drug therapy [1]: 46%
- Significance of increase in life span, drug alone [1]: significant increase in life span
- Increase in therapeutic response upon addition of UPHS [1, 5]: improved to a greater degree, as determined by increase in life span, against the intracranial tumor than against the subcutaneous tumor
- Effectiveness against intracranial 9L tumors [1]: very effective against both subcutaneous and intracranial 9L tumors
- Lung Metastases ([2]; WITH UPHS): 13
- Lung Metastases (% Large) ([2]; WITH UPHS): 40%
- Lung Metastases ([2]; WITHOUT UPHS): 13
- Lung Metastases (% Large) ([2]; WITHOUT UPHS): 58%

SMILES: O=P1(N(CCCl)CCCl)NCCCO1 (centres unmarked) [CTX, Cyclophosphamide]
- Lewis lung carcinoma growth delay, Mean Days (Lewis lung carcinoma; [3]): 43.1 ± 2.9 days
- Lewis lung carcinoma growth delay, Mean Days (Lewis lung carcinoma; [4]): 21.5 ± 1.7 days
- Increase of growth delay by addition of UPHS (Lewis lung carcinoma): more than two-fold
- Tumor growth delay relative to other drugs (Lewis lung carcinoma; vs CDDP, PAM, BCNU or 5-FU): substantially longer than that resulting from CDDP, PAM, BCNU or 5-FU
- % Increased from Control (life span) [1]: 20%
- Survival Days [1]: 31.3 days
- Increase in life span with UPHS prior to the drug therapy [1]: 43%
- Significance of increase in life span, drug alone [1]: did not reach significance
- Increase in therapeutic response upon addition of UPHS [1, 5]: greatest increases in therapeutic response upon addition of UPHS
- Effectiveness against intracranial 9L tumors [1]: least effective treatments for intracranial 9L tumors
- Lung Metastases ([2]; WITH UPHS): 8
- Lung Metastases (% Large) ([2]; WITH UPHS): 40%
- Lung Metastases ([2]; WITHOUT UPHS): 12
- Lung Metastases (% Large) ([2]; WITHOUT UPHS): 40%
- Duration of carbogen breathing necessary for significant enhancement of growth delay (FSaIIC fibrosarcoma; FSaIIC, CTX): Six hours of carbogen breathing are necessary to obtain a significant enhancement in the growth delay

SMILES: N[C@@H](Cc1ccc(N(CCCl)CCCl)cc1)C(=O)O [PAM, Melphalan]
- Lewis lung carcinoma growth delay, Mean Days (Lewis lung carcinoma; [3]): 6.8 ± 0.4 days
- Lewis lung carcinoma growth delay, Mean Days (Lewis lung carcinoma; [4]): 2.7 ± 0.3 days
- Increase of growth delay by addition of UPHS (Lewis lung carcinoma): more than two-fold
- Lung Metastases ([2]; WITH UPHS): 10
- Lung Metastases (% Large) ([2]; WITH UPHS): 50%
- Lung Metastases ([2]; WITHOUT UPHS): 13
- Lung Metastases (% Large) ([2]; WITHOUT UPHS): 48%
- Effect of extending carbogen breathing to 6 hours on tumor growth delay (FSaIIC fibrosarcoma; PAM + Fluosol-DA, carbogen 6 hours): did not alter the tumor growth delay
- Tumor growth delay, PAM prepared in Fluosol-DA as a vehicle (FSaIIC fibrosarcoma; PAM in Fluosol-DA vehicle, carbogen breathing): about 29.5 days
